Source: ChEMBL document CHEMBL4732170, “Discovery of Small-Molecule Antagonists of the PWWP Domain of NSD2” (J Med Chem, 2021)
Calls of active or inactive are those of the source. No cut-off for these calls is given here.

Key:
[1] = biological target: T1, Histone-lysine N-methyltransferase NSD3 (Homo sapiens) (UniProt Q9BZ95); test: Binding affinity to NSD3 PWWP1 domain (unknown origin) assessed as aggregation temperature at 400 uM by heating at 25 to 85 degC by differential static light scattering method
T1 sequence (whole entry): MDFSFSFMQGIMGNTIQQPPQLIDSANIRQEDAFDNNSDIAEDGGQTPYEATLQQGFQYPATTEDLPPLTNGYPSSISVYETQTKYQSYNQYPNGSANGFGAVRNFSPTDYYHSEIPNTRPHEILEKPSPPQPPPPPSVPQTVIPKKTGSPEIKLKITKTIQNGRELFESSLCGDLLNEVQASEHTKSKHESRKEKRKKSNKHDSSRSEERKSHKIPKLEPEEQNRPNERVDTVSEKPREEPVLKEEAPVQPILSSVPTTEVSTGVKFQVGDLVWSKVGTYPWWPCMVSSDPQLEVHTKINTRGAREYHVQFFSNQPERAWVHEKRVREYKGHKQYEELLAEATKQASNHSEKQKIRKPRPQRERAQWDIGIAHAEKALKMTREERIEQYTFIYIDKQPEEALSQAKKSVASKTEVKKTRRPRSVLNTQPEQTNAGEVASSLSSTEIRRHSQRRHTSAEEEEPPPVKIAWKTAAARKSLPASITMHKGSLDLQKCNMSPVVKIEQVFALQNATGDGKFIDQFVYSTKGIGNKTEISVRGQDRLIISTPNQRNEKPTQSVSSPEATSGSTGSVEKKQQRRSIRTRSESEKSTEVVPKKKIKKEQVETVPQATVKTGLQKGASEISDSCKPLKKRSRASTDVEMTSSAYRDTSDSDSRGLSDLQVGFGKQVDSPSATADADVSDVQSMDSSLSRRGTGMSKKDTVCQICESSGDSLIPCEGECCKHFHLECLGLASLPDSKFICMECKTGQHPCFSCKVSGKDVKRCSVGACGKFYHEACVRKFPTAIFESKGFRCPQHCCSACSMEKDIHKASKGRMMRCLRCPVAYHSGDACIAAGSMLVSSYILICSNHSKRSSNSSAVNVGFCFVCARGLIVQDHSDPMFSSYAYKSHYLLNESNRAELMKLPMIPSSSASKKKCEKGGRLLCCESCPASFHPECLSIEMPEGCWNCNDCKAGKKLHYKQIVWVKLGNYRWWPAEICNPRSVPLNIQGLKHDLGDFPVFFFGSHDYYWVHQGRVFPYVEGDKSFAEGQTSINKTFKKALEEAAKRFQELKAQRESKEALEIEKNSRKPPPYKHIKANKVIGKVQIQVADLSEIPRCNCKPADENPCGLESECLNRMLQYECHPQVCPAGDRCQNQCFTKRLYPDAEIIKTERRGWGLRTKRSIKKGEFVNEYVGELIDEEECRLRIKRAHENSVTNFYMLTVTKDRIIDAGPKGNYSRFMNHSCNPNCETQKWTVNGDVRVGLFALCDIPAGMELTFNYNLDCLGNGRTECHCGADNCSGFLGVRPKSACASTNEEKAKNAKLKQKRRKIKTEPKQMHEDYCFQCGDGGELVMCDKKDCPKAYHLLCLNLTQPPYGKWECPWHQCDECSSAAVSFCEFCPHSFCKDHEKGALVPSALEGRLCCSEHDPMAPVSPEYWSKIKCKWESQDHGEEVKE

[2] = biological target: T2, Zinc finger CW-type PWWP domain protein 1 (Homo sapiens) (UniProt Q9H0M4); test: Binding affinity to ZCWPW1 PWWP1 domain (unknown origin) assessed as aggregation temperature at 400 uM by heating at 25 to 85 degC by differential static light scattering method
T2 sequence (whole entry): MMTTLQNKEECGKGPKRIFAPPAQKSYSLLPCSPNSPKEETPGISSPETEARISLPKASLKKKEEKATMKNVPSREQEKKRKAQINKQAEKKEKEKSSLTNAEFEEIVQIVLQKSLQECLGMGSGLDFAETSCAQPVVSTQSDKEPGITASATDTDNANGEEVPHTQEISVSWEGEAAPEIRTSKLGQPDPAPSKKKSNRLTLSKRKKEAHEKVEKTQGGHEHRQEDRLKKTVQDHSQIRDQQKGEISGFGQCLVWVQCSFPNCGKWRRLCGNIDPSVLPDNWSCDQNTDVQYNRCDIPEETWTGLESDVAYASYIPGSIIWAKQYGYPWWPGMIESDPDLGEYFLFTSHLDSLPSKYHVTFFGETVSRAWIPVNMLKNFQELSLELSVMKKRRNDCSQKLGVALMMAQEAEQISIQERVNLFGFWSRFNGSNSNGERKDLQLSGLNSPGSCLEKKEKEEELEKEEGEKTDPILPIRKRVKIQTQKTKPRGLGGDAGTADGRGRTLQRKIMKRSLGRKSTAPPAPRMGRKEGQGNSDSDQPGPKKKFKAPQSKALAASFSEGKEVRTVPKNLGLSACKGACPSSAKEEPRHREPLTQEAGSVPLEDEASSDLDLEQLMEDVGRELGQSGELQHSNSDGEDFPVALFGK

For N#Cc1ccc(C(C(N)=O)N2CCC2c2ccc(Cl)cc2)cc1 (configuration not stated), the Activity [1] was “inactive” and the Activity [2] was “inactive”.
